In patent US8394969B2, “Cyclic benzimidazole derivatives useful as anti-diabetic agents” (Merck Sharp & Dohme Corp., priority 2008, dated 2013) one finds Emax data, which are given here for 26 compounds.

The assay concerns the target recombinant human AMPK complex 1 (containing α1β1γ1) (Homo sapiens, UniProt Q13131+Q9Y478). Kind of assay: […] (in vitro AMPK activation assay). Type of assay: biochemical. Particulars: recombinant human AMPK complex 1 (α1β1γ1); basal activity subtracted; read-out: % Maximum AMP Activation of human AMPK Complex 1.

Structures are written as SMILES.

Chain of recombinant human AMPK complex 1 (containing α1β1γ1) (Q13131 whole entry): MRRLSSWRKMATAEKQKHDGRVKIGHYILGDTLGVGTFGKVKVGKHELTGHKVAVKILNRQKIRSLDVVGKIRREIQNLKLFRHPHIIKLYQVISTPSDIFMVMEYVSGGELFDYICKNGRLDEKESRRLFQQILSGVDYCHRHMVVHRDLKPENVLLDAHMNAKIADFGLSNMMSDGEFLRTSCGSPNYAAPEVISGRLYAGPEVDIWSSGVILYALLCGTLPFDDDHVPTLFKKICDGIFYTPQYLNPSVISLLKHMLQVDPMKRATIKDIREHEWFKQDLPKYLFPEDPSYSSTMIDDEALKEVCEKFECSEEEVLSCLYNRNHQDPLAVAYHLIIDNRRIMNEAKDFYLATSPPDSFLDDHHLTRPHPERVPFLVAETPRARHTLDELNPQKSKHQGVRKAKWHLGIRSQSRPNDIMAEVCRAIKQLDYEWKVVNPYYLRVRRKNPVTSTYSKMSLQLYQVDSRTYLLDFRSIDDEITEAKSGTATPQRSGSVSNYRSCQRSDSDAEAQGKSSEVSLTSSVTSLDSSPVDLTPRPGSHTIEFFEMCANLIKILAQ
Chain of recombinant human AMPK complex 1 (containing α1β1γ1) (Q9Y478 whole entry): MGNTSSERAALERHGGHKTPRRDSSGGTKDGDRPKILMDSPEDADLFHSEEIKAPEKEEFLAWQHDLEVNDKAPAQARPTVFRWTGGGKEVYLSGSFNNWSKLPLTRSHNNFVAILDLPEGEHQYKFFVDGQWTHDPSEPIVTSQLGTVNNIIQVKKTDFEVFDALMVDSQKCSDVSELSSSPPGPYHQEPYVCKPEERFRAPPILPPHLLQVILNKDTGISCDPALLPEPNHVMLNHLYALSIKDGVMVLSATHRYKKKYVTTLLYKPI
Chain of recombinant human AMPK complex 1 (containing α1β1γ1) (P54619 whole entry partner): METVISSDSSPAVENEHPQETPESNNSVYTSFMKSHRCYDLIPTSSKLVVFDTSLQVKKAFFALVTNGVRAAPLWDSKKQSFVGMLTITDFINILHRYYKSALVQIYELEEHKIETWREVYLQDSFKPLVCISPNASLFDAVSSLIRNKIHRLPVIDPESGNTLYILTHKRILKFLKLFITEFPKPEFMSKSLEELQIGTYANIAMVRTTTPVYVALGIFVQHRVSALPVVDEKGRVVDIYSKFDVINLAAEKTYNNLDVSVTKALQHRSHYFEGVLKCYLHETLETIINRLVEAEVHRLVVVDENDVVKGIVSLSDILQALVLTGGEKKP

`N#Cc1ccc(Oc2nc3cc(-c4ccc(-c5ccccc5)cc4)c(Cl)cc3[nH]2)cc1C#N` [Example 101, 4-(5-Biphenyl-4-yl-6-chloro-1H-benzoimidazol-2-yloxy)-phthalonitrile]: the Emax is > 80%.

As to `Cc1ccc(Oc2nc3cc(-c4ccc(-c5ccc(C(=O)O)cc5)cc4)c(Cl)cc3[nH]2)cc1C(=O)O` [Example 102, 4′-[2-(3-Carboxy-4-methyl-phenoxy)-6-chloro-1H-benzoimidazol-5-yl]-biphenyl-4-carboxylic acid], the Emax was > 80%.

Consider `Cc1ccc(Oc2nc3cc(-c4ccc(-c5ccc(C#N)cc5)cc4)c(Cl)cc3[nH]2)cc1C(=O)O` [Example 103, 5-[6-Chloro-5-(4′-cyano-biphenyl-4-yl)-1H-benzoimidazol-2-yloxy]-2-methyl-benzoic acid], for which the Emax was > 80%.

Consider `Cc1ccc(Oc2nc3cc(-c4ccc(-c5ccc(O)cc5)cc4)c(Cl)cc3[nH]2)cc1C(=O)O` [Example 104, 5-[6-Chloro-5-(4-hydroxy-biphenyl-4-yl)-1H-benzoimidazol-2-yloxy]-2-methyl-benzoic acid], for which the Emax was > 80%.

In the case of `Cc1ccc(Oc2nc3cc(-c4ccc(-c5ccc(F)cc5)cc4)c(Cl)cc3[nH]2)cc1C(=O)O` [Example 105, 5-[6-Chloro-5-(4′-fluoro-biphenyl-4-yl)-1H-benzoimidazol-2-yloxy]-2-methyl-benzoic acid], the Emax was > 80%.

Take `COc1ccccc1C#Cc1cc2nc(Oc3ccc(C)c(C(=O)O)c3)[nH]c2cc1Cl` [Example 106, 5-[6-Chloro-5-(2-methoxy-phenylethynyl)-1H-benzoimidazol-2-yloxy]-2-methyl-benzoic acid]: the Emax was > 80%.

As to `COC(=O)c1cc(Oc2nc3cc(C#Cc4ccccc4OC)c(Cl)cc3[nH]2)ccc1C` [Example 107, 5-[6-Chloro-5-(2-methoxy-phenylethynyl)-1H-benzoimidazol-2-yloxy]-2-methyl-ester], the Emax was > 80%.

For the compound `COc1cccc(C#Cc2cc3nc(Oc4ccc(C)c(C(=O)O)c4)[nH]c3cc2Cl)c1` [Example 108, 5-[6-Chloro-5-(3-methoxy-phenylethynyl)-1H-benzoimidazol-2-yloxy]-2-methyl-benzoic acid], the Emax is > 80%.

As for `COC(=O)c1cc(Oc2nc3cc(C#Cc4cccc(OC)c4)c(Cl)cc3[nH]2)ccc1C` [Example 109, 5-[6-Chloro-5-(3-methoxy-phenylethynyl)-1H-benzoimidazol-2-yloxy]-2-methyl-benzoic acid methyl ester], the Emax is > 80%.

Consider `Cc1ccc(Oc2nc3cc(C#Cc4cccc(Cl)c4)c(Cl)cc3[nH]2)cc1C(=O)O` [Example 110, 5-[6-Chloro-5-(3-chloro-phenylethynyl)-1H-benzoimidazol-2-yloxy]-2-methyl-benzoic acid], for which the Emax was > 80%.

As for `Cc1ccc(Oc2nc3cc(C#Cc4cccc(F)c4)c(Cl)cc3[nH]2)cc1C(=O)O` [Example 111, 5-[6-Chloro-5-(3-fluoro-phenylethynyl)-1H-benzoimidazol-2-yloxy]-2-methyl-benzoic acid], the Emax was > 80%.

Turning to `Cc1ccc(Oc2nc3cc(C#Cc4ccc(Cl)cc4)c(Cl)cc3[nH]2)cc1C(=O)O` [Example 112, 5-[6-Chloro-5-(4-chloro-phenylethynyl)-1H-benzoimidazol-2-yloxy]-2-methyl-benzoic acid], the Emax is > 80%.

For the compound `Cc1ccc(Oc2nc3cc(C#Cc4ccc(F)cc4)c(Cl)cc3[nH]2)cc1C(=O)O` [Example 113, 5-[6-Chloro-5-(4-fluoro-phenylethynyl)-1H-benzoimidazol-2-yloxy]-2-methyl-benzoic acid], the Emax is > 80%.

As to `COC(=O)c1cc(Oc2nc3cc(C#Cc4ccc(F)cc4)c(Cl)cc3[nH]2)ccc1C` [Example 114, 5-[6-Chloro-5-(4-fluoro-phenylethynyl)-1H-benzoimidazol-2-yloxy]-2-methyl-benzoic acid methyl ester], the Emax was > 80%.

Turning to `Cc1ccc(Oc2nc3cc(C#Cc4ccccc4Cl)c(Cl)cc3[nH]2)cc1C(=O)O` [Example 115, 5-[6-Chloro-5-(2-chloro-phenylethynyl)-1H-benzoimidazol-2-yloxy]-2-methyl-benzoic acid], the Emax is > 80%.

For the compound `Cc1ccc(Oc2nc3cc(C#Cc4ccc(O)cc4)c(Cl)cc3[nH]2)cc1C(=O)O` [Example 116, 5-[6-Chloro-5-(4-hydroxy-phenylethynyl)-1H-benzoimidazol-2-yloxy]-2-methyl-benzoic acid], the Emax is > 80%.

Consider `COC(=O)c1cc(Oc2nc3cc(C#Cc4ccc(OC(C)=O)cc4)c(Cl)cc3[nH]2)ccc1C` [Example 117, 5-[5-(4-Acetoxy-phenylethynyl)-6-chloro-1H-benzoimidazol-2-yloxy]-2-methyl-benzoic acid methyl ester], for which the Emax was > 80%.

With `COC(=O)c1cc(Oc2nc3cc(C#Cc4ccccc4F)c(Cl)cc3[nH]2)ccc1C` [Example 119, 5-[6-Chloro-5-(2-fluoro-phenylethynyl)-1H-benzoimidazol-2-yloxy]-2-methyl-benzoic acid methyl ester], the Emax is > 80%.

Consider `Cc1ccc(Oc2nc3cc(C#Cc4ccc(-c5cnco5)cc4)c(Cl)cc3[nH]2)cc1C(=O)O` [Example 120, 5-[6-Chloro-5-(4-oxazol-5-yl-phenylethynyl)-1H-benzoimidazol-2-yloxy]-2-methyl-benzoic acid], for which the Emax was > 80%.

As to `COc1ccc(C#Cc2cc3nc(Oc4ccc(C)c(C(=O)O)c4)[nH]c3cc2Cl)cc1` [Example 121, 5-[6-Chloro-5-(4-methoxy-phenylethynyl)-1H-benzoimidazol-2-yloxy]-2-methyl-benzoic acid], the Emax was > 80%.

As to `COC(=O)c1cc(Oc2nc3cc(C#Cc4ccc(OC)cc4)c(Cl)cc3[nH]2)ccc1C` [Example 122, 5-[6-Chloro-5-(4-methoxy-phenylethynyl)-1H-benzoimidazol-2-yloxy]-2-methyl-benzoic acid methyl ester], the Emax was > 80%.

Consider `COC(=O)c1cc(Oc2nc3cc(C#Cc4ccc(-c5cnco5)cc4)c(Cl)cc3[nH]2)ccc1C` [Example 123, 5-[6-Chloro-5-(4-oxazol-5-yl-phenylethynyl)-1H-benzoimidazol-2-yloxy]-2-methyl-benzoic acid methyl ester], for which the Emax is > 80%.

Consider `Cc1ccc(Oc2nc3cc(C#Cc4cccc(O)c4)c(Cl)cc3[nH]2)cc1C(=O)O` [Example 124, 5-[6-Chloro-5-(3-hydroxy-phenylethynyl)-1H-benzoimidazol-2-yloxy]-2-methyl-benzoic acid], for which the Emax is > 80%.

Take `COC(=O)c1cc(Oc2nc3cc(C#Cc4cccc(O)c4)c(Cl)cc3[nH]2)ccc1C` [Example 125, 5-[6-Chloro-5-(3-hydroxy-phenylethynyl)-1H-benzoimidazol-2-yloxy]-2-methyl-benzoic acid methyl ester]: the Emax was > 80%.

In the case of `Cc1ccc(Oc2nc3cc(C#Cc4cccc(C(=O)O)c4)c(Cl)cc3[nH]2)cc1C(=O)O` [Example 126, 5-[5-(3-Carboxy-phenylethynyl)-6-chloro-1H-benzoimidazol-2-yloxy]-2-methyl-benzoic acid], the Emax is > 80%.

As for `COc1cc(C(=O)O)ccc1C#Cc1cc2nc(Oc3ccc(C)c(C(=O)O)c3)[nH]c2cc1Cl` [Example 127, 5-({5-[(4-carboxy-2-methoxyphenyl)ethynyl]-6-chloro-1H benzimidazol-2-yl}oxy)-2-methylbenzoic acid], the Emax is > 80%.
